Here are results for three compounds from PubChem BioAssay (NCI).

Test systems include A549 NSCLC; CAKI-1 renal; CCRF-CEM leukemia; HOP-62 NSCLC; K-562 leukemia; KM12 colon; MOLT-4 leukemia; SK-MEL-28 melanoma; SK-MEL-5 melanoma; SNB-19 CNS.
Common to all, as to assay: growth of human tumour cells (NCI), 48 h

SMILES strings stand for the structures. “And” between values parts separate entries of the source, which are not always exact repeats. Identical values can stand only once.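 Cultured in 96-well plates, cells were exposed to test compound for 48 hours across five concentrations. GI50 marks 50% less growth. Definition used: TGI = concentration required for complete inhibition of growth.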

Regarding `Fc1ccc(-c2c(-c3ccncc3)n(CCN3CCOCC3)c3cccnc23)cc1`, the GI50 in the test on A549 NSCLC, with CAKI-1 renal, in the test on CCRF-CEM leukemia, with HOP-62 NSCLC, in the test with K-562 leukemia and in the test with KM12 colon was over 25 µM each time. Also, the GI50 with MOLT-4 leukemia, with SK-MEL-28 melanoma, in the test with SK-MEL-5 melanoma and in the test on SNB-19 CNS was over 25 µM in each case. Further, the TGI in the test with A549 NSCLC, with CAKI-1 renal, in the test on CCRF-CEM leukemia, with HOP-62 NSCLC, in the test on K-562 leukemia and with KM12 colon was over 25 µM throughout. For the same compound, the TGI in the test on MOLT-4 leukemia, in the test with SK-MEL-28 melanoma, with SK-MEL-5 melanoma and in the test with SNB-19 CNS was over 25 µM each time.

Consider `Cc1ccc(S(=O)(=O)ON=C2CC(c3ccccc3)N(C)C(c3ccccc3)C2)cc1` (stereo unspecified), for which the TGI in the test on A549 NSCLC is 63.1 µM and 55.1 µM; with CAKI-1 renal it was 71.5 µM and 44.9 µM; in the test on CCRF-CEM leukemia, over 100 µM; in the test on HOP-62 NSCLC, 68.4 µM and 98.2 µM; in the test on K-562 leukemia, over 100 µM; with KM12 colon, 34.1 µM. Further, the TGI in the test with MOLT-4 leukemia is 53.2 µM and > 100 µM; with SK-MEL-28 melanoma, 54.3 µM and 49 µM; with SK-MEL-5 melanoma it was 32.5 µM and 31.8 µM; in the test with SNB-19 CNS, 92.8 µM and > 100 µM. Also, in the test on K-562 leukemia, the GI50 was 60.1 µM and 29.3 µM.

With `COC(=N)/C(=C1\OC(N)=C(c2ccc(Cl)cc2)C1=O)c1ccc(Cl)cc1`, the TGI with A549 NSCLC, with CAKI-1 renal, with CCRF-CEM leukemia, in the test on HOP-62 NSCLC, in the test on K-562 leukemia and in the test with KM12 colon was over 100 µM each time. Moreover, the TGI in the test on MOLT-4 leukemia, in the test with SK-MEL-28 melanoma, in the test with SK-MEL-5 melanoma and with SNB-19 CNS was over 100 µM throughout.
